Results from patent publication US6008352A, “1-(isoquinolin-1-yl)-4-(1-phenylmethyl) piperazines; dopamine receptor subtype specific ligands” (Neurogen Corporation, priority 1998, dated 1999).

How the values were obtained:
D4 receptor = D4 receptor binding assay (3H-YM 09151-2 displacement); design: species or system African Green monkey; conditions: 0.5 nM 3H-YM 09151-2; nonspecific binding with 1 mM spiperone
Procedure: (§1) 1. Assay For D2 And D4 Receptor Binding Activity
(§2) Pellets of COS cells containing recombinantly produced D2 or D4 receptors from African Green monkey are used for the assays. The sample is homogenized in 100 volumes (w/vol) of 0.05 M Tris HCl buffer at 4° C. and pH 7.4. The sample is then centrifuged at 30,000×g and resuspended and rehomogenized. The sample is again centrifuged as described above and the final tissue sample is frozen until use. The tissue is resuspended 1:20 (wt/vol) in 0.05 M Tris HCl buffer containing 100 mM NaCl.
(§3) Incubations are carried out at […] and contain 0.4 ml of tissue sample, 0.5 nM ^3 H-YM 09151-2 and the compound of interest in a total incubation of 1.0 ml. Nonspecific binding is defined as that binding found in the presence of 1 mM spiperone; without further additions, nonspecific binding is less than 20% of total binding. Binding characteristics for representative examples of this invention for the D2 and D4 receptor subtypes are shown in Table 2 below for rat striatal homogenates. The binding characteristics of compounds of Formula I for the D4 receptor, expressed in nM, generally range from about 0.5 nanomolar (nM) to about 25 nanomolar (nM). These compounds typically have binding constants for the D2 receptor of from about 200 nM to more than 1000 nM.

D2 receptor = target: T1, D2 receptor (Chlorocebus aethiops, UniProt P52702); experiment: D2 receptor binding assay (3H-YM 09151-2 displacement); design: species or system African Green monkey; conditions: 0.5 nM 3H-YM 09151-2; nonspecific binding with 1 mM spiperone
T1 construct: expressed in transfected cells; host or cells: COS cells
Procedure: as §1, §2, §3

T1 sequence (P52702 whole entry): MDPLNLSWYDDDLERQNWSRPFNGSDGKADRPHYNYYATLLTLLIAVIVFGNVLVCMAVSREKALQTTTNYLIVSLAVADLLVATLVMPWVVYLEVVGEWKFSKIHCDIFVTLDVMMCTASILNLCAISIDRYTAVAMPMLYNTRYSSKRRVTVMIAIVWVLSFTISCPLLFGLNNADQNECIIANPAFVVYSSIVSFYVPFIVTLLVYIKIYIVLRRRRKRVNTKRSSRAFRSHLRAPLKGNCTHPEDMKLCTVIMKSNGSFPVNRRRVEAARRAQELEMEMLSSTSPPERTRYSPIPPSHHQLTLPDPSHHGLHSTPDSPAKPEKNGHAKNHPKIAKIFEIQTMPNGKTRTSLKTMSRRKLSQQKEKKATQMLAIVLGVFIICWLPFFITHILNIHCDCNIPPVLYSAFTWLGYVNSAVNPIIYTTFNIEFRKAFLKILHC

| Compound | Ki (D4 receptor) | Ki (D2 receptor) |
| --- | --- | --- |
| Cc1ccc(CN2CCN(c3nccc4ccccc34)CC2)cc1 [Compound 6] | 9 nM | 220 nM |
| Fc1ccc(CN2CCN(c3nccc4ccccc34)CC2)cc1F [Compound 2] | 13 nM | 1000 nM |
| Clc1ccc(CN2CCN(c3nccc4ccccc34)CC2)cc1 [Compound 1] | 5 nM | 556 nM |
| c1ccc2c(N3CCN(Cc4ccc5c(c4)OCO5)CC3)nccc2c1 [Compound 4] | 19 nM |  |
